Measured values from article PMC9502272, “A Metabolomics Approach for Predicting OATP1B-Type Transporter-Mediated Drug–Drug Interaction Liabilities” (Pharmaceutics, 2022).
Counter-ions that a name gives are not always drawn.

Molecular target: T1, Oatp1b2 (Mus musculus, UniProt Q9JJL3)
T1 sequence (Q9JJL3 1-689): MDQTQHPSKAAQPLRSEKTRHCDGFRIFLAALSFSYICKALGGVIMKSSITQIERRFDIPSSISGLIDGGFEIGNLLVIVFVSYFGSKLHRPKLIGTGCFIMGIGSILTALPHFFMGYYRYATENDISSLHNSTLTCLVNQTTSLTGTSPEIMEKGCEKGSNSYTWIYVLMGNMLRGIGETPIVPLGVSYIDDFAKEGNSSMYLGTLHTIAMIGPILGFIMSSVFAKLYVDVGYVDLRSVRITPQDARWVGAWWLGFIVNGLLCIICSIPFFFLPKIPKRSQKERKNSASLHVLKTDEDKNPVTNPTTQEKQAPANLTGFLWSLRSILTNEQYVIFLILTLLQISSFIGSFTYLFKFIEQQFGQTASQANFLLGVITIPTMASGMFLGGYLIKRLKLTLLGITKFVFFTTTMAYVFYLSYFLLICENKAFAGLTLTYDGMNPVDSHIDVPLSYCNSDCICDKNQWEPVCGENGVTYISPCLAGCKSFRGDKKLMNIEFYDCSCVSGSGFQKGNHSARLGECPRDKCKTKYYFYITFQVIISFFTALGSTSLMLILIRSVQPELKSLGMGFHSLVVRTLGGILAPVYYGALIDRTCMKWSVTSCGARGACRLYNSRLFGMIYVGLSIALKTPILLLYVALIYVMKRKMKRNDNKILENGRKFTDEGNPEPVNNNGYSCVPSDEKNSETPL
Assay: Untargeted metabolomics of plasma from untreated wild-type and Oatp1b2(−/−) mice
Settings: for Fold of Change KO/WT: plasma of untreated Oatp1b2-deficient (KO) vs wild-type (WT) mice, semi-quantitative, positive = higher in KO, n = 6 per group; for Mean value KO: plasma of untreated Oatp1b2-deficient mice; for Mean value KO / Mean value WT: raw area counts rescaled to median = 1; for Mean value WT: plasma of untreated wild-type mice
Experimental: For all experiments, age- and sex-matched mice (8–12 weeks old) were used. […] Mice with a deficiency of Oatp1b2 (Oatp1b2(−/−) mice), the single murine orthologue of OATP1B1 and OATP1B3 in humans, on a DBA/1LacJ background were kindly provided by Drs. Richard B. Kim (Western University, London, Ontario, Canada) and Jeffrey L. Stock (Pfizer, Groton, CT, USA).
Plasma samples from untreated wild-type mice and Oatp1b2(−/−) mice were analyzed for structurally named and unknown molecules using a non-targeted semi-quantitative liquid chromatography-tandem mass spectrometry (LC-MS/MS) and gas chromatography-mass spectrometry platforms (Metabolon, Durham, NC, USA). Compounds were identified by comparison with library entries of purified standards or recurrent unknown entities.

Structure (SMILES) | Fold of Change KO/WT | Mean value KO | Mean value WT
CCCCC/C=C\C/C=C\C/C=C\C/C=C\CCCC(=O)OC[C@@H](O)COP(=O)(O)OC1C(O)C(O)C(O)C(O)C1O (stereo partly drawn) [1-arachidonoyl-GPI (20:4)] | 1.48 | 1.11 | .754
CCCCC/C=C\C/C=C\C/C=C\C/C=C\CCCC(=O)O[C@H](COC(=O)CCCCCCC/C=C\C/C=C\CCCCC)COP(=O)(O)OCCN [1-linoleoyl-2-arachidonoyl-GPE (18:2/20:4)] | 1.48 | 1.26 | .854
CC/C=C\C/C=C\C/C=C\CCCCCCCC(=O)O[C@H](COC(=O)CCCCCCC/C=C\C/C=C\CCCCC)COP(=O)([O-])OCC[N+](C)(C)C [1-linoleoyl-2-linolenoyl-GPC (18:2/18:3)] | 1.51 | 1.40 | .923
CCCCC/C=C\C/C=C\CCCCCCCC(=O)OC[C@@H](O)COP(=O)([O-])OCC[N+](C)(C)C [1-linoleoyl-GPC (18:2)] | 1.62 | 1.22 | .752
CCCCC/C=C\C/C=C\CCCCCCCC(=O)OC[C@@H](O)COP(=O)(O)OCCN [1-linoleoyl-GPE (18:2)] | 1.94 | 1.42 | .736
CCCCCC=CCC=CCCCCCCCC(=O)OCC(O)COP(=O)(O)OCC(O)CO (stereo not drawn) [1-linoleoyl-GPG (18:2)] | 3.71 | 1.96 | .529
CCCCC/C=C\C/C=C\CCCCCCCC(=O)OC[C@@H](O)COP(=O)(O)OC1[C@H](O)[C@H](O)C(O)[C@H](O)[C@H]1O (stereo partly drawn) [1-linoleoyl-GPI (18:2)] | 1.65 | 1.27 | .765
CCCCC/C=C\C/C=C\C/C=C\C/C=C\CCCC(=O)O[C@H](COC(=O)CCCCCCC/C=C\CCCCCCCC)COP(=O)(O)OC1C(O)C(O)C(O)C(O)C1O (stereo partly drawn) [1-oleoyl-2-arachidonoyl-GPI (18:1/20:4)] | 2.01 | 1.37 | .681
CCCCCCCC/C=C\CCCCCCCC(=O)OC[C@@H](O)COP(=O)(O)OCCN [1-oleoyl-GPE (18:1)] | 2.05 | 1.30 | .634
CCCCCCCC/C=C\CCCCCCCC(=O)OC[C@@H](O)COP(=O)(O)OC1[C@H](O)[C@H](O)C(O)[C@H](O)[C@H]1O (stereo partly drawn) [1-oleoyl-GPI (18:1)] | 1.87 | 1.36 | .729
CCCCCC/C=C\CCCCCCCC(=O)OC[C@@H](O)COP(=O)([O-])OCC[N+](C)(C)C [1-palmitoleoyl-GPC (16:1)] | 1.97 | 1.31 | .666
CCCCCCCCCCCCCCCC(=O)OC[C@@H](O)COP(=O)([O-])OCC[N+](C)(C)C [1-palmitoyl-GPC (16:0)] | 1.29 | 1.12 | .868
CCCCCCCCCCCCCCCCCC(=O)OC[C@@H](O)COP(=O)(O)OCC(O)CO (stereo partly drawn) [1-stearoyl-GPG (18:0)] | 4.16 | 1.76 | .423
COC1=C(O)[C@@H]([C@@H](O)CO)OC1=O [2-O-methylascorbic acid] | 1.16 | 1.08 | .927
Cc1ccc(OS(=O)(=O)O)c(N)c1 [2-amino-p-cresol sulfate] | 4.28 | 1.86 | .435
CCC(C)C(O)C(=O)O (stereo not drawn) [2-hydroxy-3-methylvalerate] | 3.15 | 2.33 | .738
CCCCCC/C=C\CCCCCCCC(=O)O[C@H](CO)COP(=O)([O-])OCC[N+](C)(C)C [2-palmitoleoyl-GPC (16:1)] | 1.95 | 1.36 | .696
CCC(CO)C(=O)O (stereo not drawn) [3-hydroxy-2-ethylpropionate] | 1.25 | 1.10 | .879

Second part, the compound after the results:

Fold of Change KO/WT | Mean value KO | Mean value WT | Structure (SMILES)
1.36 | 1.16 | .847 | CCCCCCCCCCCCCCCCCCCCCCCC(=O)OC[C@@H](O)COP(=O)([O-])OCC[N+](C)(C)C [1-lignoceroyl-GPC (24:0)]
2.13 | 1.41 | .661 | CC/C=C\C/C=C\C/C=C\CCCCCCCC(=O)OC[C@@H](O)COP(=O)([O-])OCC[N+](C)(C)C [1-linolenoyl-GPC (18:3)]
1.36 | 1.15 | .846 | CCCCC/C=C\C/C=C\C/C=C\C/C=C\CCCC(=O)O[C@H](COC(=O)CCCCCCC/C=C\C/C=C\CCCCC)COP(=O)([O-])OCC[N+](C)(C)C [1-linoleoyl-2-arachidonoyl-GPC (18:2/20:4n6)]
2.36 | 1.41 | .595 | CCCCC/C=C\C/C=C\CCCCCCCC(=O)OC[C@@H](O)COP(=O)(O)O [1-linoleoyl-GPA (18:2)]
1.34 | 1.17 | .874 | CC/C=C\C/C=C\C/C=C\C/C=C\C/C=C\C/C=C\CCC(=O)O[C@H](COC(=O)CCCCCCC/C=C\CCCCCCCC)COP(=O)([O-])OCC[N+](C)(C)C [1-oleoyl-2-docosahexaenoyl-GPC (18:1/22:6)]
1.78 | 1.30 | .732 | CCCCCCCC/C=C\CCCCCCCC(=O)OC[C@@H](O)COP(=O)([O-])OCC[N+](C)(C)C [1-oleoyl-GPC (18:1)]
8.19 | 1.80 | .219 | CCCCCCCC/C=C\CCCCCCCC(=O)OCC(O)COP(=O)(O)OCC(O)CO (stereo not drawn) [1-oleoyl-GPG (18:1)]
1.86 | 1.46 | .784 | CC/C=C\C/C=C\C/C=C\CCCCCCCC(=O)O[C@H](COC(=O)CCCCCCC/C=C\CCCCCC)COP(=O)([O-])OCC[N+](C)(C)C [1-palmitoleoyl-2-linolenoyl-GPC (16:1/18:3)]
1.30 | 1.08 | .834 | CCCCCCCC/C=C\CCCCCCCC(=O)O[C@H](COC(=O)CCCCCCCCCCCCCCC)COP(=O)([O-])OCC[N+](C)(C)C [1-palmitoyl-2-oleoyl-GPC (16:0/18:1)]
1.46 | 1.24 | .847 | CCCCCCCC/C=C\CCCCCCCC(=O)O[C@H](COC(=O)CCCCCCCCCCCCCCC)COP(=O)(O)OCCN [1-palmitoyl-2-oleoyl-GPE (16:0/18:1)]
1.14 | 1.09 | .960 | CCCCCCCCCCCCCCCCCC(=O)O[C@H](COC(=O)CCCCCCCCCCCCCCC)COP(=O)([O-])OCC[N+](C)(C)C [1-palmitoyl-2-stearoyl-GPC (16:0/18:0)]
1.73 | 1.33 | .765 | CCCCCCCCCCCCCCCC(=O)OC[C@@H](O)COP(=O)(O)OCCN [1-palmitoyl-GPE (16:0)]
5.40 | 2.00 | .371 | CCCCCCCCCCCCCCCC(=O)OC[C@@H](O)COP(=O)(O)OCC(O)CO (stereo partly drawn) [1-palmitoyl-GPG (16:0)]
1.64 | 1.34 | .818 | O=C(O)Cc1cn(C2O[C@H](CO)[C@@H](O)[C@H]2O)cn1 (stereo partly drawn) [1-ribosyl-imidazoleacetate]
1.20 | 1.07 | .892 | CCCCCCCC/C=C\CCCCCCCC(=O)O[C@H](COC(=O)CCCCCCCCCCCCCCCCC)COP(=O)([O-])OCC[N+](C)(C)C [1-stearoyl-2-oleoyl-GPC (18:0/18:1)]
1.34 | 1.16 | .867 | CCCCCCCCCCCCCCCCCC(=O)OC[C@@H](O)COP(=O)(O)OCCN [1-stearoyl-GPE (18:0)]
1.34 | 1.23 | .915 | CSC=CC(O)C(O)C(=O)O (stereo not drawn) [2,3-dihydroxy-5-methylthio-4-pentenoate (DMTPA)]
1.30 | 1.16 | .895 | CC(C(=O)O)c1ccc(O)cc1 (stereo not drawn) [2-(4-hydroxyphenyl)propionate]
4.32 | 1.64 | .380 | O=C(O)CCCCCCCCC(O)CC(=O)O (stereo not drawn) [3-hydroxydodecanedioate]
1.48 | 1.19 | .804 | O=S(=O)(O)Oc1c[nH]c2ccccc12 [3-indoxyl sulfate]
